Assay results from patent US20160257697A1, “THIOPHENE-SUBSTITUTED TETRACYCLIC COMPOUNDS AND METHODS OFUSE THEREOF FOR THE TREATMENT OF VIRAL DISEASES” (priority 2013, published 2016).
Read-outs that look alike come from different tables or passages of the source.

Key:
Assay in all cases: microbe, parasite or virus in culture
Format in all cases: cell-based, Hepatitis C virus (HCV)
HCV replicon 1AY93H = settings: Replicon Assay A
In short: (§1)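 Replicon cells incubated with compound for 3 days in medium with 5% FBS and 0.5% DMSO final. Replicon RNA measured in lysates by multiplex real-time RT-PCR (Neo set) against cyclophilin control, quantified from standard curves of Ct versus log ng replicon total RNA.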

HCV replicon 1A = settings: Replicon Assay A
In short: as §1

HCV replicon 2B = settings: Replicon Assay A
In short: as §1

HCV replicon 1AQ30D = settings: Replicon Assay B
HCV replicon 1B = settings: Replicon Assay B
[1] = read-out: 1A Y93H IC50, replicon 1AY93H
[2] = Hepatitis C virus, read-out: 1A Q30D IC50 (nM), replicon 1AQ30D
[3] = read-out: 1A Y93H IC50, HCV replicon 1A Y93H
[4] = read-out: 2B IC50, HCV replicon 2B
[5] = read-out: 1A Q30D IC50, HCV replicon 1A Q30D
[6] = Hepatitis C virus, HCV replicon 1A
[7] = Hepatitis C virus, HCV replicon 1B
[8] = Hepatitis C virus, read-out: 2B IC50 (nM), replicon 2B

## COC(=O)N[C@H](C(=O)N1CCC[C@@H]1c1cnc(-c2cc(F)c3c(c2)OC(c2ccc(C4(O)CC4)s2)n2c-3cc3cc(-c4ncc([C@@H]5CCCN5C(=O)[C@@H](NC(=O)OC)C(C)C)[nH]4)ccc32)[nH]1)C(C)C (stereo partly drawn) [Compound 61]
HCV replicon 1AY93H; replicon 1AY93H, read-out: 1A Y93H IC50
  IC50: 0.014 nM
HCV replicon 1A; replicon 1A
  IC50: 1.1 pM
HCV replicon 2B; replicon 2B, read-out: 2B IC50
  IC50: 0.012 nM
HCV replicon 1AQ30D; replicon 1AQ30D, read-out: 1A Q30D IC50
  IC50: 0.22 nM
HCV replicon 1B; replicon 1B
  IC50: 1.1 pM

## CCc1ccc(C2Oc3cc(-c4cnc([C@@H]5CCCN5C(=O)[C@@H](NC(=O)OC)C(C)C)[nH]4)cc(F)c3-c3cc4cc(-c5cnc([C@@H]6C[C@H]7C[C@H]7N6C(=O)C(NC(=O)OC)C6CCOC(C)(C)C6)[nH]5)ccc4n32)s1 (single isomer, unassigned) [Compound 201]
HCV replicon 1AY93H; [1]
  IC50: 0.002 nM
HCV replicon 1A; replicon 1A
  IC50: 1.5 pM
HCV replicon 2B; read-out: 2B IC50, replicon 2B
  IC50: 0.008 nM
HCV replicon 1AQ30D; read-out: 1A Q30D IC50, replicon 1AQ30D
  IC50: 0.015 nM
HCV replicon 1B; replicon 1B
  IC50: 2.2 pM

## COC(=O)N[C@H](C(=O)N1CCC[C@H]1c1ncc(-c2cc(F)c3c(c2)OC(c2ccsc2)n2c-3cc3cc(-c4cnc([C@@H]5CCCN5C(=O)[C@@H](NC(=O)OC)C(C)C)[nH]4)ccc32)[nH]1)C(C)C (single isomer, unassigned) [Compound 317]
HCV replicon 1AY93H; [1]
  IC50: 0.11 nM
HCV replicon 1A; Hepatitis C virus, replicon 1A
  IC50: 1.2 pM
HCV replicon 2B; read-out: 2B IC50, replicon 2B
  IC50: 0.94 nM
HCV replicon 1AQ30D; [2]
  IC50: 2.58 nM
HCV replicon 1B; Hepatitis C virus, replicon 1B
  IC50: 1.6 pM

## COC(=O)NC(C(=O)N1CCC[C@H]1c1ncc(-c2ccc3c(c2)cc2n3C(c3cc4ccccc4s3)Oc3cc(-c4cnc([C@@H]5CCCN5C(=O)[C@@H](NC(=O)OC)C(C)C)[nH]4)cc(F)c3-2)[nH]1)C1C[C@@H](C)O[C@@H](C)C1 (single isomer, unassigned) [Compound 641]
HCV replicon 1AY93H; [3]
  IC50: 0.0079 nM
HCV replicon 1A; HCV replicon 1A
  IC50: 3.3 pM
HCV replicon 2B; [4]
  IC50: 0.0244 nM
HCV replicon 1AQ30D; [5]
  IC50: 0.306 nM
HCV replicon 1B; HCV replicon 1B
  IC50: 1.1 pM

## COC(=O)N[C@H](C(=O)N1CCC[C@H]1c1ncc(-c2ccc3c(c2)OC(c2ccc(C4CC4)s2)n2c-3c(F)c3cc(-c4cnc([C@@H]5C[C@H]6C[C@H]6N5C(=O)[C@@H](NC(=O)OC)C(C)C)[nH]4)ccc32)[nH]1)C(C)C (single isomer, unassigned) [Compound 611]
HCV replicon 1AY93H; [3]
  IC50: 0.0115 nM
HCV replicon 1A; [6]
  IC50: 1.9 pM
HCV replicon 2B; [4]
  IC50: 0.183 nM
HCV replicon 1AQ30D; [5]
  IC50: 0.443 nM
HCV replicon 1B; [7]
  IC50: 1.4 pM

## COC(=O)NC(C(=O)N1CCC[C@H]1c1ncc(-c2ccc3c(c2)cc2n3C(c3ccc(C4CC4)s3)Oc3cc(-c4cnc([C@@H]5CCCN5C(=O)[C@@H](NC(=O)OC)C(C)C)[nH]4)cc(F)c3-2)[nH]1)C1C[C@@H](C)O[C@@H](C)C1 (single isomer, unassigned) [Compound 206]
HCV replicon 1AY93H; Hepatitis C virus, read-out: 1A Y93H IC50 (nM), replicon 1AY93H
  IC50: 0.16 nM
HCV replicon 1A; Hepatitis C virus, replicon 1A
  IC50: 1.4 pM
HCV replicon 2B; [8]
  IC50: 0.16 nM
HCV replicon 1AQ30D; [2]
  IC50: 2.91 nM
HCV replicon 1B; Hepatitis C virus, replicon 1B
  IC50: 2.6 pM

## COC(=O)NC(C(=O)N1CCC[C@H]1c1ncc(-c2ccc3c(c2)cc2n3C(c3ccc(C(F)(F)F)s3)Oc3cc(-c4cnc([C@@H]5CCCN5C(=O)[C@@H](NC(=O)OC)C(C)C)[nH]4)cc(F)c3-2)[nH]1)C1C[C@@H](C)O[C@@H](C)C1 (stereo partly drawn) [Compound 650]
HCV replicon 1AY93H; Hepatitis C virus, read-out: 1A Y93H IC50, HCV replicon 1A Y93H
  IC50: 0.0057 nM
HCV replicon 1A; [6]
  IC50: 2 pM
HCV replicon 2B; Hepatitis C virus, read-out: 2B IC50, HCV replicon 2B
  IC50: 0.005 nM
HCV replicon 1AQ30D; Hepatitis C virus, read-out: 1A Q30D IC50, HCV replicon 1A Q30D
  IC50: 0.0458 nM
HCV replicon 1B; [7]
  IC50: 1.4 pM

## COC(=O)NC(C(=O)N1CCC[C@H]1c1ncc(-c2ccc3c(c2)cc2n3C(c3ccc(C4CC4)s3)Oc3cc(-c4cnc([C@@H]5CCCN5C(=O)[C@@H](NC(=O)OC)C(C)C)[nH]4)cc(F)c3-2)[nH]1)C1C2COCC21 (single isomer, unassigned) [Compound 339]
HCV replicon 1AY93H; [1]
  IC50: 0.0047 nM
HCV replicon 1A; replicon 1A
  IC50: 2 pM
HCV replicon 2B; read-out: 2B IC50, replicon 2B
  IC50: 0.0292 nM
HCV replicon 1AQ30D; [2]
  IC50: 0.133 nM
HCV replicon 1B; Hepatitis C virus, replicon 1B
  IC50: 2.2 pM

## COC(=O)NC(C(=O)N1CCC[C@H]1c1ncc(-c2cc(F)c3c(c2)OC(c2ccc(C4CC4)s2)n2c-3cc3cc(-c4cnc([C@@H]5CCCN5C(=O)C(NC(=O)OC)C5C[C@@H](C)O[C@@H](C)C5)[nH]4)ccc32)[nH]1)C1C[C@@H](C)O[C@@H](C)C1 (single isomer, unassigned) [Compound 301]
HCV replicon 1AY93H; [1]
  IC50: 0.11 nM
HCV replicon 1A; replicon 1A
  IC50: 2.5 pM
HCV replicon 2B; [8]
  IC50: 0.037 nM
HCV replicon 1AQ30D; [2]
  IC50: 0.33 nM
HCV replicon 1B; Hepatitis C virus, replicon 1B
  IC50: 2 pM
